Source: patent US5240696A, “Treatment of periodontitis” (Chesebrough-Pond's USA Co., Division of Conopco, Inc., priority 1991, dated 1993)
Read-outs that look alike come from different tables or passages of the source.

Legend:
cyclo-oxygenase = molecular target: T1, cyclo-oxygenase (Ovis aries, UniProt P05979); test: cyclo-oxygenase assay (oxygen consumption, Clark oxygen electrode); assay type: biochemical, sheep
T1 construct: microsomal enzyme fraction, obtained from a 220,000 x g precipitate of a homogenate of sheep vesicular glands; from tissue; host or cells: sheep vesicular glands (lyophilized microsomal fraction, 220,000 x g precipitate)
T1 sequence (P05979 25-600): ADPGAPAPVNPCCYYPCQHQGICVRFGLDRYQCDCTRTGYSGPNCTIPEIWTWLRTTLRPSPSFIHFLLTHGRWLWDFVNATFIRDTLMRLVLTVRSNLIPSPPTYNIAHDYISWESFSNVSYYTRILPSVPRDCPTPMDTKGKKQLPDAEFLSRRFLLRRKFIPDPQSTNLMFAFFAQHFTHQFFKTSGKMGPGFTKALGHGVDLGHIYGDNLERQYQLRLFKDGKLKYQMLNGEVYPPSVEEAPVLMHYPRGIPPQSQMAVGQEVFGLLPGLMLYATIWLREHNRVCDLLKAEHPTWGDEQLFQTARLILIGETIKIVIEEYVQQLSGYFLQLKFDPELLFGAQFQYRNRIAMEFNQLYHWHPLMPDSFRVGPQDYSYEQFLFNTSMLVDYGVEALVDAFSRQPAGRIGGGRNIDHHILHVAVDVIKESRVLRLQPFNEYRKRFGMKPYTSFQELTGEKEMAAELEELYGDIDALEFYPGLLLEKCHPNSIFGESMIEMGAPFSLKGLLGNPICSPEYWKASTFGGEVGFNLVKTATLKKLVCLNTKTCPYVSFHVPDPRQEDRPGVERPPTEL
Procedure: In vitro experiments were carried out to determine the I50 value of various cyclo-oxygenase inhibitors. […] These experiments were carried out as described in the general method given below, keeping the enzyme and substrate concentrations constant and using increasing inhibitor concentrations. Determinations at each inhibitor concentrations were carried out in duplicate.
The cyclo-oxygenase assay was carried out according to the method described by van der Ouderaa et al., "Methods in Enzymology" 86, page 60-68 (Academic Press Inc., 1982).
0.1M Tris-HCl (pH 8.0) kept at 25° C. and continuously aerated by bubbling air through the solution.
20 mg/ml in toluene kept under nitrogen at -20° C.
0.5 ml of stock solution was taken and the toluene removed under a stream of nitrogen. The substrate was suspended in 10 ml of incubation buffer, freshly prepared each day and kept at room temperature.
500 mg of dry lyophilized microsomal enzyme fraction, obtained from a 220,000 x g precipitate of a homogenate of sheep vesicular glands, was dispersed in 10 ml of incubation buffer for 5 min. using an Ultra Turrax homogeniser. The suspension was kept in ice throughout the experiment and shaken well before each sample was withdrawn.
0.23 mM in distilled water freshly prepared each day and kept on ice.
0.1 mM made up in incubation buffer, freshly prepared each day and kept on ice.
The cyclo-oxygenase activity was measured at 25° C. by monitoring the oxygen consumption as a result of cyclo-oxygenation of the substrate using a Clark oxygen electrode.
A typical experimental run was carried out as follows.
The mixture was then stirred for 5 min. to allow temperature equilibrium and to achieve a steady baseline on the chart recorder monitoring the dissolved oxygen concentration. Substrate solution (100 μl) was quickly injected into the cell to start the reaction and the oxygen consumption was typically monitored for 5 min. following addition of substrate.
The cyclo-oxygenase activity of the sample was calculated from the oxygen consumption curve assuming that maximum deflection of the recorder corresponds to 0.26 mM dissolved oxygen in the buffer and that 2 moles of oxygen are consumed per mole of substrate. The linear part of the sigmoid curve of oxygen consumption was used for initial-rate calculations.
The experiments were standardised by measuring the activity of the enzyme stock solution before and after each set of kinetic experiments and normalizing results to the mean activity.
Triclosan was dissolved in ethanol; AN-10 and APCF3-8 were dissolved in polyethyleneglycol (MW 400) and sodium salicylate was used as an aqueous solution. The concentration of the inhibitor solutions were adjusted so that only 10 μl of the inhibitor solution was added.

Neonatal mouse calvaria [1] = test: Bone loss in vitro: calcium release from calvaria stimulated with PGE2; assay type: cell-based; conditions: Example 2
Procedure: (§1) The experimental method used is fully described in Meghi,S et al. Brit. J. Cancer (1988) 58, pp 17-21. Neonatal mouse calvaria were isolated with minimum trauma and maintained in a nutrient medium appropriate for cell culture (DMEM+15% horse serum) at […] in 100% humidity, the medium also containing the materials under test. The pH was maintained in an atmosphere of 5% CO2. After 24 h the medium was discarded, the calvaria were divided into control and test groups, and the medium was replaced with fresh medium containing the materials under test. Prostaglandin E2 (PGE2, 10^-6 M) was added with or without Triclosan as appropriate to stimulate the release of calcium ions (i.e. bone resorption) from the calvaria. After two days further culture in the test media the release of calcium into the medium from the calvaria was determined by atomic absorption spectroscopy. Calcium release is a measure of bone resorption (i.e. degradation of bone) regulated by the specialised cells (osteoblasts and osteoclasts) on the bone surface. Net calcium release was obtained by subtracting the basal medium calcium level.

Neonatal mouse calvaria [2] = test: Bone loss in vitro: calcium release from calvaria stimulated with thrombin; assay type: cell-based
Procedure: as §1
The test method of Example 2 was repeated, using thrombin, however, as bone loss stimulator, and using indomethacin as a cyclo-oxygenase inhibitor as control.
The procedure of Example 3 was repeated, also using zinc citrate as addition.

[3] = system: Actinobacillus actinomycetemcomitans; test: MIC-value of Triclosan for periodontal micro organisms; assay type: cell-based
[4] = Retention by gingival tissue following topical application; conditions: in vitro and in vivo
[5] = sheep vesicular gland microsomal enzyme, 8,11,14-eicosatrienoic acid substrate, 25° C., pH 8.0, read-out: I50 (concentration of inhibitor which gives 50% inhibition of cyclo-oxygenase activity)

CCCCCCCCCC(=O)c1ccc(O)c(C(=O)Nc2ccc([N+](=O)[O-])cc2)c1 [AN-10, 5-n-decanoyl-4'nitrosalicylanilide]
IC50 (cyclo-oxygenase; [5]): 180 µM

CCCCCCCC(=O)c1ccc(O)c(C(=O)Nc2cccc(C(F)(F)F)c2)c1 [APCF3-8, 5-n-octanoyl-'trifluoromethylphenyl-salicylanilide]
IC50 (cyclo-oxygenase; [5]): 240 µM

CCCCC[C@H](O)/C=C/[C@H]1[C@H](O)CC(=O)[C@@H]1C/C=C\CCCC(=O)O [PGE2, Prostaglandin E2]
Net Calcium Release (Neonatal mouse calvaria [1]; PGE2 10^-6 M alone (positive control), two days culture): 3.5 mg/dL

Oc1cc(Cl)ccc1Oc1ccc(Cl)cc1Cl [Triclosan, 2',4,4'-trichloro-2-hydroxy-diphenyl-ether]
Net Calcium Release (Neonatal mouse calvaria [1]; + PGE2 (10^-6 M) and 1.10^-5 Triclosan): 1.4 mg/dL | Net Calcium Release (Neonatal mouse calvaria [1]; + PGE2 (10^-6 M) and 2.5.10^-5 M Triclosan): -0.1 mg/dL | IC50 (cyclo-oxygenase): 155 µM | anti-cyclo-oxygenase activity (cyclo-oxygenase; in words): considerable anti-cyclo-oxygenase activity | anti-inflammatory potency compared with the preferred substituted salicylamides (cyclo-oxygenase; in words, salicylamides of U.S. Pat. No. 4,742,083): much more potent anti-inflammatory agent than the preferred substituted salicylamides | Net Calcium Release (Neonatal mouse calvaria [2]; Example 3, + thrombin and 1.10^-5 M Triclosan): 0.2 mg/dL | Net Calcium Release (Neonatal mouse calvaria [2]; Example 3, + thrombin and 5.10^-5 M Triclosan): -0.6 mg/dL | Net Calcium Release (Neonatal mouse calvaria [2]; Example 4, + thrombin and 5.10^-6 M Triclosan): 0.75 mg/dL | MIC-value [3]: 0.0005% | retention by gingival tissue [4]: retained by gingival tissue both in vitro and in vivo

COc1ccc2c(c1)c(CC(=O)O)c(C)n2C(=O)c1ccc(Cl)cc1 [indomethacin]
Net Calcium Release (Neonatal mouse calvaria [2]; Example 3, + thrombin and 10^-6 M indomethacin): 0.4 mg/dL | Net Calcium Release (Neonatal mouse calvaria [2]; Example 4, + thrombin and 10^-6 M indomethacin): 0.0 mg/dL

O=C([O-])CC(O)(CC(=O)[O-])C(=O)[O-].O=C([O-])CC(O)(CC(=O)[O-])C(=O)[O-].[Zn+2].[Zn+2].[Zn+2] [zinc citrate]
Net Calcium Release (Neonatal mouse calvaria [2]; Example 4, + thrombin and 1.10^-4 M zinc citrate): 1.3 mg/dL | Net Calcium Release (Neonatal mouse calvaria [2]; Example 4, + thrombin and 2.10^-4 M zinc citrate): 0.8 mg/dL | Net Calcium Release (Neonatal mouse calvaria [2]; Example 4, + thrombin and 5.10^-5 M zinc citrate): 1.4 mg/dL

thrombin
Net Calcium Release (Neonatal mouse calvaria [2]; Example 3, + thrombin alone): 3.9 mg/dL | Net Calcium Release (Neonatal mouse calvaria [2]; Example 4, thrombin alone): 2.4 mg/dL
